Source: PubChem BioAssay (NCI)
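Compound exposure: 48 hours, 5 concentrations, 96-well plates. Here, GI50 denotes the concentration required for 50% inhibition of growth. At the TGI there is no net growth.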

Assays:
Assay in all cases: NCI tumour cell line growth inhibition, 48 h
COLO 205 colon = test system: COLO 205 colon
HCT-15 colon = test system: HCT-15 colon
A549 NSCLC = test system: A549 NSCLC
OVCAR-8 ovarian = test system: OVCAR-8 ovarian
SF-268 CNS = test system: SF-268 CNS
HCT-116 colon = test system: HCT-116 colon
MCF7 breast = test system: MCF7 breast
OVCAR-5 ovarian = test system: OVCAR-5 ovarian
A498 renal = test system: A498 renal
CAKI-1 renal = test system: CAKI-1 renal

Row | Compound | GI50 (COLO 205 colon) [µM] | TGI (COLO 205 colon) [µM] | GI50 (HCT-15 colon) [µM] | TGI (HCT-15 colon) [µM] | GI50 (A549 NSCLC) [µM] | TGI (A549 NSCLC) [µM] | GI50 (OVCAR-8 ovarian) [µM] | TGI (OVCAR-8 ovarian) [µM] | GI50 (SF-268 CNS) [µM] | TGI (SF-268 CNS) [µM] | GI50 (HCT-116 colon) [µM] | TGI (HCT-116 colon) [µM] | GI50 (MCF7 breast) [µM] | TGI (MCF7 breast) [µM] | GI50 (OVCAR-5 ovarian) [µM] | TGI (OVCAR-5 ovarian) [µM] | GI50 (A498 renal) [µM] | TGI (A498 renal) [µM] | GI50 (CAKI-1 renal) [µM] | TGI (CAKI-1 renal) [µM]
1 | Cc1nccc2c3ccc(OCc4cn(-c5ccc(Cl)cc5)nn4)cc3n(CCCc3ccccc3)c12 | 4.22 | > 33.3 | 2.57 | > 33.3 | 2.3 | > 33.3 | 1.21 | 4.22 | 4.66 | 17.5 | 2.14 | > 33.3 | 1.49 | > 33.3 | 7.34 | > 33.3 | > 33.3 | > 33.3 |  | 
2 | CCCCCCCCCCCCCCCC[N+](C)(CCO)Cc1cnc[nH]1 (stereo not given) |  |  | 3.03 | 26.1 | 1.49 | 5.57 |  |  |  |  |  |  | 1.87 | 13.9 |  |  | 2.93 | 12.2 | 0.622 | 4.47
3 | CC(C)CC(=O)Nc1n[nH]c2c1CN(C(=O)C1CCN(C)CC1)C2(C)C | 0.331 | 2.19 | > 10 | > 10 | 1.15 | > 10 | 1.3 | > 10 | 1.9 | > 10 | 0.362 | > 10 | 0.191 | > 10 | 1.9 | > 10 | 2.34 | > 10 | 4.79 | > 10
4 | CCN(CC)CCCC(C)Nc1nc(C)cc(Nc2ccc3nc(C)cc(N)c3c2)n1 (stereo not given) | 39.5 | > 100 | > 100 | > 100 | > 100 | > 100 | 84.5 | > 100 | 22.1 | 50.9 | 32.4 | > 100 | 31.2 | 78.3 | 45.8 | > 100 | > 100 | > 100 |  | 
5 | N#CC(C#N)N=Nc1ccc(Br)cc1 | 1.43 | 3.25 | 3.22 | 15.9 | 47.9 | > 100 | 3.67 | 33.4 | 13.1 | > 100 | 2.44 | 9.44 | 2.74 | > 51.7 | 4.8 | > 72.6 | 13.3 | 46.1 | 2.05 | 12.1
6 | Cc1[nH]c2ccccc2c1-c1cc(-c2cc(-c3c(C)[nH]c4ccccc34)nc(N)n2)nc(N)n1 |  | > 100 |  | > 100 |  | > 100 |  | > 100 |  | > 100 |  | > 100 |  | > 100 |  | > 100 |  | > 100 |  | > 100
7 | O=C(O)/C(Cl)=C(\Cl)C(=O)NC1C2CC3CC(C2)CC1C3 (stereo not given) |  | > 100 |  | > 100 |  | > 100 |  | > 100 |  | > 100 |  | > 100 |  |  |  | > 100 |  | > 100 |  | > 100
8 | O=C(CC1(O)C(=O)Nc2ccccc21)c1ccco1 (stereo not given) |  | > 100 |  | > 100 |  | > 100 |  | > 100 |  | > 100 |  | > 100 |  |  |  | > 100 |  | > 100 |  | > 100
9 | COc1cc2c(cc1OC)C(OC)N(C)c1c-2ccc2cc3c(cc12)OCO3 (stereo not given) |  | 2.95 |  | > 75 |  |  |  | 21.6 |  | > 20.9 |  | 7.63 |  | 12.6 |  | 11.8 |  | 1.83 |  | 33
10 | CC(=O)[O-].[Mn+3].[O-]c1ccccc1C=NCCN=Cc1ccccc1[O-] | > 100 | > 100 | 41.9 | > 100 | > 100 | > 100 | > 100 | > 100 | 11.1 | > 100 | 95.5 | > 100 |  |  | 96.4 | > 100 | > 100 | > 100 | > 100 | > 100
11 | COc1cc(O)c2c(c1)C(=O)C=C(Cl)C2=O |  | > 100 |  | > 100 |  | > 100 |  | > 100 |  | > 100 |  | > 100 |  |  |  | > 100 |  | > 100 |  | > 100
12 | S=C(Nc1ccc(Cl)cc1)Nc1ccc(-c2nc3ccccc3o2)cc1 | 19.9 | > 100 | 10.9 | 25.7 | 24.3 | 92.6 | 21 | 49.7 | 16.5 | 76.7 | 13.6 | 26.4 | 17.6 | 51.4 | 20.4 | 52.9 |  |  | 12.3 | 39.8
13 | COc1ccc(/C=C2\CC(C)CC3C2=NN(C(C)=O)C3c2ccc(OC)cc2)cc1 (stereo not given) | 25.7 | 92.5 | 16 | 38.7 | 25.1 | > 100 | 28.1 | > 100 | 20.8 | 53.2 |  |  | 20 | 63.3 | 21.6 | 48.2 | 17 | 33.1 | 30.5 | > 100
14 | CN1C(c2ccccc2)CS(=O)(=O)CS1(=O)=O (stereo not given) |  | > 100 |  | > 100 |  | > 100 |  | > 100 |  | > 100 |  | > 100 |  |  |  | > 100 |  | > 100 |  | > 100
15 | O=C(O)c1cc2ccccc2c(N=Nc2cc(C(F)(F)F)ccc2Cl)c1O |  | > 100 |  | > 100 |  | > 100 |  | > 100 |  | > 100 |  | > 100 |  | > 100 |  | > 100 |  |  |  | > 100
16 | CN(CC#N)C1CCCC[C@H]1O (stereo not given in full) |  | > 100 |  | > 100 |  | > 100 |  | > 100 |  | > 100 |  | > 100 |  |  |  | > 100 |  | > 100 |  | > 100
17 | CN(C)CCNC(=O)c1cccc2c(Nc3ccc(S(N)(=O)=O)cc3)c3ccccc3nc12 |  | 1.75 |  | 7.07 |  | 7.29 |  | 3.73 |  | 7.49 |  | 1.74 |  |  |  | 6.56 |  | 7.08 |  | 13.6
18 | CN1CCN(c2cc(C(=O)Nc3cc4cc(-c5cnn(C)c5)ccc4cn3)ccn2)CC1 | 0.0673 | 0.494 | 0.0666 | 2.46 | 0.0432 | 11.4 | 0.225 | 11.7 | 0.2 | 6.59 | 0.0376 | 11.4 | 0.0911 | 0.399 | 0.308 | 11.9 | 0.0605 | 0.447 |  | 
19 | Cc1ccc(NC(=O)C(=O)CC(=O)C2CCOC2=O)c(C)c1 (stereo not given) |  | > 100 |  | > 100 |  | > 100 |  | > 100 |  | > 100 |  | > 100 |  |  |  | > 100 |  | > 100 |  | > 100
20 | O=S(=O)(N/N=C/c1cccc(Cl)c1Cl)c1ccccc1 |  | > 100 |  | > 100 |  | > 100 |  | > 100 |  | > 100 |  | > 100 |  |  |  | > 100 |  | > 100 |  | > 100
21 | CC#C/C(=N\OC[C@H]1COCCN1)c1ccc2ncnc(Nc3ccc(OCc4cccc(F)c4)c(Cl)c3)c2c1 | 1.77 | 3.33 | 1.41 | 2.81 | 1.64 | 9.85 | 1.76 | 4.27 |  |  | 1.69 | 3.42 | 1.57 | 3.05 | 1.65 | 4.27 | 2.07 | 7.7 | 0.183 | 10.4
22 | O=C(Cc1nc2ccccc2s1)C(=O)Nc1cccc(Cl)c1 |  | > 100 |  | > 100 |  | > 100 |  | > 100 |  | > 100 |  | > 100 |  |  |  | > 100 |  | > 100 |  | > 100
23 | O=C(/C=C/C=C/c1c(C2CC2)nc2ccccc2c1-c1ccc(F)cc1)c1cccs1 |  |  | 1.06 | 3.92 | 3.72 | > 100 | 3.58 | > 100 | 3.35 | > 100 |  |  | 0.467 | > 100 |  |  | 1.67 | 3.58 |  | 
24 | O=S(=O)(SCc1ccccc1)C(c1ccccc1)c1ccccc1 |  | 36.8 |  | > 100 |  | > 100 |  | 43.1 |  | > 100 |  | > 100 |  |  |  | > 100 |  | > 100 |  | 93.8
25 | CN(/N=C/c1cccc2cccnc12)c1ccc([N+](=O)[O-])cc1 |  | > 100 |  | > 100 |  | > 100 |  | > 100 |  | > 100 |  | > 100 |  |  |  | > 100 |  | > 100 |  | > 100
26 | CC1=C(C(=O)NCc2ccccc2)C(c2ccc([N+](=O)[O-])cc2)C(C(=O)NCc2ccccc2)=C(C)N1 |  | 83.5 |  | > 100 |  | > 100 |  | > 100 |  | > 100 |  | 60.6 |  |  |  | 93.5 |  | > 100 |  | > 100
27 | COc1ccc(C[C@@H]2NC[C@@H](O)[C@@H]2OC(C)=O)cc1 | 2.04 |  |  | 0.19 | 5.54 |  | 3.48 | 0.112 | 4.37 |  | 2.92 |  |  |  | 14.1 | > 100 | 1.14 |  | 30.3 | 
